Assay results published in patent US20130338176A1, “METHODS OF PREVENTING AND TREATING HYPERLIPIDEMIA OR ATHEROSCLEROSIS” (The Trustees of Columbia University in the City of New York, priority 2010, published 2013).

Experiments:
adipose tissue explants [1] = experiment: Adipose tissue explants, mRNA expression of lipolysis genes (Real Time PCR); assay type: cell-based, mice; conditions: 25 μM serotonin, vs untreated control
Procedure: (§1) Epigonadal fat pads were isolated from 8 week old wild type male mice, cut into 20 mg fragments, and placed in culture medium (DMEM low glucose, 0.1% bovine serum albumin, both from Invitrogen) in a cell incubator (37° C., 5% CO2 atmosphere) for 2 h. After this time, the fat explants were stimulated for 2 h with different concentrations of serotonin. Concentrations of free fatty acids (FFA) and glycerol were measured in the medium. For gene expression analysis, tissue was homogenized in TRIZOL® reagent (Sigma) and RNA was isolated according to the manufacturer's instructions. The RNA was used as a template for cDNA synthesis (cDNA synthesis kit, Invitrogen). The relative gene expression was quantified using Real Time PCR.

adipose tissue explants [2] = experiment: Adipose tissue explants, FFA and glycerol release on stimulation with serotonin; assay type: cell-based, mice; conditions: white adipose tissue explants, ex vivo
Procedure: as §1

ApoE−/− mice [3] = experiment: Atherosclerotic plaque area in Oil Red O stained aortas, ApoE−/− mice; assay type: in vivo; conditions: vs placebo
Description: (§2) To study the effect of gut-derived serum or plasma serotonin on the development of atherosclerosis, two well-studied genetic mouse models of hypercholesterolemia and atherosclerosis were used, namely mice with deletions in both copies of the apoliprotein E gene (referred to as ApoE−/− mice) and mice carrying deletions of both copies of the low density lipoprotein receptor gene (LDLR−/− mice). These mice have elevated blood cholesterol levels due to a defect in hepatic clearance of cholesterol containing very low density lipoproteins and low density lipoproteins (Ishibashi et al., 1993, J. Clin. Invest. 92:883-893; Plump et al., 1992, Cell 71:343-353). To accelerate the process of atherosclerotic plaque development, the mice were placed on a high cholesterol rodent diet at 5 weeks of age and fed this diet for 12 weeks. […]
(§3) After 12 weeks of high cholesterol diet and administration of therapeutic agent or placebo, the mice were sacrificed to determine the amount of atheromas in their aortas. […] A quantitative computer-assisted image analysis (ImageJ) of the plaque staining areas was performed and correlated with the whole vessel wall areas.

ApoE−/− mice [4] = experiment: Plasma cholesterol, triglyceride, glycerol and free fatty acid levels, ApoE−/− mice; assay type: in vivo
Description: (§4) To study the effect of gut-derived serum or plasma serotonin on the development of atherosclerosis, two well-studied genetic mouse models of hypercholesterolemia and atherosclerosis were used, namely mice with deletions in both copies of the apoliprotein E gene (referred to as ApoE−/− mice) and mice carrying deletions of both copies of the low density lipoprotein receptor gene (LDLR−/− mice). These mice have elevated blood cholesterol levels due to a defect in hepatic clearance of cholesterol containing very low density lipoproteins and low density lipoproteins (Ishibashi et al., 1993, J. Clin. Invest. 92:883-893; Plump et al., 1992, Cell 71:343-353). To accelerate the process of atherosclerotic plaque development, the mice were placed on a high cholesterol rodent diet at 5 weeks of age and fed this diet for 12 weeks. During this period, the mice were orally administrated placebo (diluent) or LP-533401, an inhibitor of tryptophan hydroxylase 1 (TPH1), the key enzyme required for serum or plasma serotonin synthesis, at the dose of 200 mg per kg of body weight per day (FIG. 1).
(§5) Cholesterol, triglycerides, glycerol, and free fatty acids were measured in plasma from 4 hours fasted mice using commercially available kits (Cholesterol E, Wako, Cat. No. 439-17501; Triglycerides determination kit, Sigma, Cat. No. TR0100-1KT (measures both triglycerides and glycerol), HR Series NEFA-HR, Wako, Cat. No. 999-34691) according to the manufacturer's instructions.

LDLR−/− mice [5] = experiment: Atherosclerotic plaque area in Oil Red O stained aortas, LDLR−/− mice; assay type: in vivo; conditions: vs placebo
Description: as §2, §3

wild type mice = experiment: Plasma cholesterol, triglyceride, glycerol and free fatty acid levels, wild type mice; assay type: in vivo; conditions: vs placebo
Procedure: as §5

LDLR−/− mice [6] = experiment: Plasma cholesterol and triglyceride levels, LDLR−/− mice; assay type: in vivo; conditions: high cholesterol diet, vs placebo
Description: as §2, §5

ApoE−/− mice [7] = experiment: Plasma serotonin determination (ELISA), ApoE−/− mice; assay type: in vivo; conditions: high cholesterol diet 12 weeks, 200 mg per kg per day orally, vs placebo
Description: as §4
Serotonin content in the plasma was determined using Serotonin research ELISA (IBL, Cat. No. IB89540) according to the manufacturer's instructions.

[8] = 2 h stimulation, all tested concentrations
[9] = ApoE−/− mice fed high cholesterol diet, vs placebo
[10] = ApoE−/− mice fed normal rodent chow diet, vs placebo

NCCc1c[nH]c2ccc(O)cc12 [serotonin, 5-hydroxytryptamine]
expression levels of CGI58 (adipose tissue explants [1]): does not influence the expression levels
expression levels of GOS2 (adipose tissue explants [1]): does not influence the expression levels
expression levels of perilipin (adipose tissue explants [1]): does not influence the expression levels
expression of adipose triglyceride lipase (ATGL) (adipose tissue explants [1]): does not affect
expression of hormone sensitive lipase (HSL) (adipose tissue explants [1]): promotes the expression
concentration giving the highest stimulation of FFA and glycerol secretion (adipose tissue explants [2]): 25 µM
secretion of FFA from the adipose tissue (adipose tissue explants [2]; [8]): stimulated secretion
secretion of glycerol from the adipose tissue (adipose tissue explants [2]; [8]): stimulated secretion

Nc1nc(OC(c2ccc(-c3cccc(F)c3)cc2)C(F)(F)F)cc(-c2ccc(C[C@H](N)C(=O)O)cc2)n1 (stereo partly drawn) [LP-533401]
reduction of the area occupied by atherosclerotic plaques (ApoE−/− mice [3]; high cholesterol diet 12 weeks, 200 mg per kg of body weight per day orally): 44%
atheroma formation (ApoE−/− mice [3]; FIG. 2): decreased atheroma formation
FFA levels (ApoE−/− mice [4]; [9]): reduced
glycerol levels (ApoE−/− mice [4]; [9]): reduced
FFA levels (ApoE−/− mice [4]; [10]): reduced
glycerol levels (ApoE−/− mice [4]; [10]): reduced
cholesterol levels in plasma, reduced in comparison to placebo (ApoE−/− mice [4]; ApoE−/− mice, high cholesterol diet, 200 mg per kg per day orally, 4 hours fasted): 30%
triglyceride levels (ApoE−/− mice [4]; ApoE−/− mice, high cholesterol diet, vs placebo): does not alter triglyceride levels
reduction in the amount of atherosclerotic plaques (LDLR−/− mice [5]; high cholesterol diet 12 weeks, 200 mg per kg per day orally): 40%
atheroma formation (LDLR−/− mice [5]; FIG. 3): lowers atheroma formation
FFA levels (wild type mice): reduced
cholesterol levels (wild type mice): did not alter cholesterol levels
glycerol levels (wild type mice): reduced
triglyceride levels (wild type mice): lowers triglyceride levels
triglyceride levels (LDLR−/− mice [6]): does not alter triglyceride levels
reduction of plasma serotonin levels (ApoE−/− mice [7]): 80%
